Numbers after ± are expanded uncertainties.
Experiment: xn = mol fraction of the nth substance listed
Settings: Liquid, Vibrating tube method, x1 = 1

## CCO [ethanol] + CCCCCCC
293.15 K, 100 kPa
  mass density: 789.4 ± 1 kg/m3
293.15 K, 5000 kPa
  mass density: 793.5 ± 1 kg/m3
293.15 K, 10000 kPa
  mass density: 797.5 ± 1 kg/m3
293.15 K, 15000 kPa
  mass density: 801.4 ± 1 kg/m3
293.15 K, 20000 kPa
  mass density: 805.2 ± 1 kg/m3
293.15 K, 25000 kPa
  mass density: 808.7 ± 1 kg/m3
293.15 K, 30000 kPa
  mass density: 812.1 ± 1.1 kg/m3
293.15 K, 35000 kPa
  mass density: 815.3 ± 1.1 kg/m3
293.15 K, 40000 kPa
  mass density: 818.6 ± 1.1 kg/m3
293.15 K, 45000 kPa
  mass density: 821.6 ± 1.1 kg/m3
293.15 K, 50000 kPa
  mass density: 824.6 ± 1.1 kg/m3
293.15 K, 55000 kPa
  mass density: 827.5 ± 1.1 kg/m3
293.15 K, 60000 kPa
  mass density: 830.2 ± 1.1 kg/m3
293.15 K, 65000 kPa
  mass density: 832.9 ± 1.1 kg/m3
303.15 K, 100 kPa
  mass density: 781.1 ± 1 kg/m3
303.15 K, 5000 kPa
  mass density: 785.7 ± 1 kg/m3
303.15 K, 10000 kPa
  mass density: 789.8 ± 1 kg/m3
303.15 K, 15000 kPa
  mass density: 794 ± 1 kg/m3
303.15 K, 20000 kPa
  mass density: 797.8 ± 1 kg/m3
303.15 K, 25000 kPa
  mass density: 801.6 ± 1 kg/m3
303.15 K, 30000 kPa
  mass density: 805 ± 1.1 kg/m3
303.15 K, 35000 kPa
  mass density: 808.5 ± 1.1 kg/m3
303.15 K, 40000 kPa
  mass density: 811.8 ± 1.1 kg/m3
303.15 K, 45000 kPa
  mass density: 814.9 ± 1.1 kg/m3
303.15 K, 50000 kPa
  mass density: 817.9 ± 1.1 kg/m3
303.15 K, 55000 kPa
  mass density: 821.1 ± 1.1 kg/m3
303.15 K, 60000 kPa
  mass density: 824 ± 1.1 kg/m3
303.15 K, 65000 kPa
  mass density: 826.7 ± 1.1 kg/m3
313.15 K, 100 kPa
  mass density: 772.3 ± 1 kg/m3
313.15 K, 5000 kPa
  mass density: 776.9 ± 1 kg/m3
313.15 K, 10000 kPa
  mass density: 781.5 ± 1 kg/m3
313.15 K, 15000 kPa
  mass density: 785.8 ± 1 kg/m3
313.15 K, 20000 kPa
  mass density: 789.8 ± 1 kg/m3
313.15 K, 25000 kPa
  mass density: 793.7 ± 1 kg/m3
313.15 K, 30000 kPa
  mass density: 797.4 ± 1.1 kg/m3
313.15 K, 35000 kPa
  mass density: 801 ± 1.1 kg/m3
313.15 K, 40000 kPa
  mass density: 804.4 ± 1.1 kg/m3
313.15 K, 45000 kPa
  mass density: 807.8 ± 1.1 kg/m3
313.15 K, 50000 kPa
  mass density: 810.8 ± 1.1 kg/m3
313.15 K, 55000 kPa
  mass density: 813.7 ± 1.1 kg/m3
313.15 K, 60000 kPa
  mass density: 816.6 ± 1.1 kg/m3
313.15 K, 65000 kPa
  mass density: 819.5 ± 1.1 kg/m3
323.15 K, 100 kPa
  mass density: 763.1 ± 1 kg/m3
323.15 K, 5000 kPa
  mass density: 768 ± 1 kg/m3
323.15 K, 10000 kPa
  mass density: 772.9 ± 1 kg/m3
323.15 K, 15000 kPa
  mass density: 777.3 ± 1 kg/m3
323.15 K, 20000 kPa
  mass density: 781.4 ± 1 kg/m3
323.15 K, 25000 kPa
  mass density: 785.7 ± 1.1 kg/m3
323.15 K, 30000 kPa
  mass density: 789.4 ± 1.1 kg/m3
323.15 K, 35000 kPa
  mass density: 793.1 ± 1.1 kg/m3
323.15 K, 40000 kPa
  mass density: 796.7 ± 1.1 kg/m3
323.15 K, 45000 kPa
  mass density: 800.1 ± 1.1 kg/m3
323.15 K, 50000 kPa
  mass density: 803.5 ± 1.1 kg/m3
323.15 K, 55000 kPa
  mass density: 806.6 ± 1.1 kg/m3
323.15 K, 60000 kPa
  mass density: 809.7 ± 1.1 kg/m3
323.15 K, 65000 kPa
  mass density: 812.6 ± 1.1 kg/m3
333.15 K, 100 kPa
  mass density: 754.2 ± 1 kg/m3
333.15 K, 5000 kPa
  mass density: 759.4 ± 1 kg/m3
333.15 K, 10000 kPa
  mass density: 764.6 ± 1 kg/m3
333.15 K, 15000 kPa
  mass density: 769.4 ± 1 kg/m3
333.15 K, 20000 kPa
  mass density: 773.8 ± 1 kg/m3
333.15 K, 25000 kPa
  mass density: 777.8 ± 1.1 kg/m3
333.15 K, 30000 kPa
  mass density: 781.7 ± 1.1 kg/m3
333.15 K, 35000 kPa
  mass density: 785.6 ± 1.1 kg/m3
333.15 K, 40000 kPa
  mass density: 789.3 ± 1.1 kg/m3
333.15 K, 45000 kPa
  mass density: 792.8 ± 1.1 kg/m3
333.15 K, 50000 kPa
  mass density: 796.3 ± 1.1 kg/m3
333.15 K, 55000 kPa
  mass density: 799.7 ± 1.1 kg/m3
333.15 K, 60000 kPa
  mass density: 802.9 ± 1.1 kg/m3
333.15 K, 65000 kPa
  mass density: 806 ± 1.1 kg/m3

Reference: the NIST ThermoML archive (doi:10.1021/je050261u)
